Cytotoxicity data for 98 compounds are collected here from ChEMBL document CHEMBL3507680, “University of Dundee, Gates Library screen for HepG2 cell viability”.

A short description of this data set: Human HepG2 cell viability assay in 384 well format. Type of data set: toxicity, cell-based. Set-up: dose 125 nL, time 70.5 hour; cytotoxicity at 70.5 h: concentration not given beside the values. Particulars: HepG2 cells, read-out: Inhibition.

Take `COc1ccc(C(=O)NCc2ccc(C(=O)O)o2)cc1`: the cytotoxicity at 70.5 h was 27.3%.

`CC(=O)c1c(N(C)C)ccnc1C(F)(F)F`: the cytotoxicity at 70.5 h is -6.51%.

On to `O=C([C@@H]1C[C@@H]2CCN(Cc3ccco3)C[C@H]2O1)N1CCCO1`, for which the cytotoxicity at 70.5 h is -0.42%.

For the compound `Cc1ccoc1C(=O)N1CC(C(=O)N2CCOCC2)C2(CCOCC2)C1` (stereo not drawn), the cytotoxicity at 70.5 h was determined as 15.4%.

For `CCO[C@H]1CO[C@@]2(CCCN(C(=O)c3ccc(OC)c(F)c3)C2)C1`, the cytotoxicity at 70.5 h was 2.45%.

As for `CCC1=N[C@@]2(CC[C@@H]3CN(S(=O)(=O)CC)C[C@@H]32)C(=O)N1CC`, the cytotoxicity at 70.5 h was -2.37%.

For the compound `CCC1=N[C@@]2(CC[C@@H]3CN(S(C)(=O)=O)C[C@@H]32)C(=O)N1CC(C)C`, the cytotoxicity at 70.5 h was -1.52%.

Regarding `CCOC(=O)CN1CCC2(CC1)CC(NC(=O)c1ccccn1)CO2` (stereo not drawn), the cytotoxicity at 70.5 h was -1.03%.

As to `Cc1ccsc1C(=O)N1CC(C(=O)N2CCCC2)C2(CCOCC2)C1` (stereo not drawn), the cytotoxicity at 70.5 h was 0.96%.

`CNC(=O)[C@@]12CCCN(c3ncccn3)[C@@H]1CN(c1ncc(C)cn1)C2`: the cytotoxicity at 70.5 h was -4.37%.

Consider `CN(C)Cc1nnc2n1CCCN(C(=O)c1c[nH]cn1)C2`, for which the cytotoxicity at 70.5 h is -0.569%.

Regarding `CNC(=O)[C@@]12CCCN(c3ncccn3)[C@@H]1CN(c1ncc(F)cn1)C2`, the cytotoxicity at 70.5 h is -0.144%.

For `O=C(COc1ccccc1)N1CCC[C@]2(C[C@@H](OCC3CC3)CO2)C1`, the cytotoxicity at 70.5 h stood at 0.205%.

In the case of `CS(=O)(=O)CC(=O)NCC1OCCc2cn(CC3CC3)nc21` (stereo not drawn), the cytotoxicity at 70.5 h is -1.93%.

As for `Cc1csc([C@H]2C[C@@H]3CCN(C(=O)c4cnccn4)C[C@H]3O2)n1`, the cytotoxicity at 70.5 h was -3.11%.

For the compound `CO[C@@H]1CO[C@@]2(CCN(C(=O)COc3ccccc3C)C2)C1`, the cytotoxicity at 70.5 h is -2.61%.

Take `CCOCC1CN(C(=O)COc2ccccc2)Cc2cn(C)nc21` (stereo not drawn): the cytotoxicity at 70.5 h was -4%.

Take `Cc1csc([C@@H]2C[C@@H]3CCN(C(=O)c4cccn4C)C[C@H]3O2)n1`: the cytotoxicity at 70.5 h stood at 9.1%.

For `COCC1CN(Cc2cccnc2OC)Cc2cnn(C)c21` (stereo not drawn), the cytotoxicity at 70.5 h stood at 6.07%.

With `O=C1NCC[C@]12CN(Cc1ccco1)C[C@H]2c1ccccc1`, the cytotoxicity at 70.5 h came to 1.63%.

Turning to `CC(C)NC(=O)c1cc2c(nc1N(C)C)CCN(S(=O)(=O)C1CC1)CC2`, the cytotoxicity at 70.5 h is 7.69%.

For the compound `O=C(CCn1cc(Cl)cn1)Nc1nncs1`, the cytotoxicity at 70.5 h came out at 15.8%.

Turning to `Cc1c(Cl)c(C(=O)NN2CCOCC2)nn1C`, the cytotoxicity at 70.5 h was -8.4%.

As for `Cc1cc(C(F)(F)F)nn1C(C)C(=O)NN1CCN(C)CC1` (stereo not drawn), the cytotoxicity at 70.5 h amounted to 18.4%.

As for `Cc1nn(CC(=O)N2CCN(Cc3cnn(C)c3C)CC2)cc1Cl`, the cytotoxicity at 70.5 h is -9.22%.

Consider `Cc1cc(C(=O)N(C)Cc2cnn(C)c2C)n(C)n1`, for which the cytotoxicity at 70.5 h was 14%.

On to `Cc1c(Cl)c(C(F)(F)F)nn1C(C)C(=O)NC1CCN(C)CC1` (stereo not drawn), for which the cytotoxicity at 70.5 h came to 7.5%.

`Cn1nccc1CNC(=O)C1CCCCC1`: the cytotoxicity at 70.5 h was -2.81%.

With `COC(=O)C1=C(C)N=C2SCC(=O)N2C1c1cnn(C)c1C` (stereo not drawn), the cytotoxicity at 70.5 h is -1.28%.

On to `NC(=O)c1ccn(COc2ccccc2Cl)n1`, for which the cytotoxicity at 70.5 h is -9.79%.

With `Cc1cc(C(F)(F)F)nn1CC(C)C(=O)NC(C)C` (stereo not drawn), the cytotoxicity at 70.5 h was determined as 19.9%.

As for `O=C(NC1CC1)c1ccn(COc2c(Cl)cccc2Cl)n1`, the cytotoxicity at 70.5 h was -14.6%.

Regarding `CC(Cn1cc(Br)cn1)C(=O)Nc1ccc(C(N)=O)cc1` (stereo not drawn), the cytotoxicity at 70.5 h is 7.39%.

Regarding `CCOC(=O)N1CCN(C(=O)c2cc(-c3ccc(C)cc3)on2)CC1`, the cytotoxicity at 70.5 h is 5.24%.

In the case of `Cn1cc(S(=O)(=O)NCc2ccc(F)cc2)cn1`, the cytotoxicity at 70.5 h was -2.02%.

In the case of `CCS(=O)(=O)Nc1cnn(Cc2cccc(C)c2)c1`, the cytotoxicity at 70.5 h was -3.36%.

In the case of `CCn1ncc(S(=O)(=O)NC(C)c2cc(OC)ccc2OC)c1C` (stereo not drawn), the cytotoxicity at 70.5 h was determined as 20.2%.

On to `Cc1nn(CCCNC(=O)C2CCN(S(C)(=O)=O)CC2)cc1Cl`, for which the cytotoxicity at 70.5 h came out at 36.7%.

On to `CCn1cc(NS(=O)(=O)c2ccc(F)cc2)c(C(=O)NCC(C)C)n1`, for which the cytotoxicity at 70.5 h is -1.23%.

As to `O=C(c1ccc(COc2ccccc2Cl)o1)N1N=CCC1(O)C(F)(F)F` (stereo not drawn), the cytotoxicity at 70.5 h is -4.75%.

Consider `O=C1CCC(=O)c2oc3ccc(Br)cc3c2N1`, for which the cytotoxicity at 70.5 h is -12.5%.

With `O=C1CCC(=O)c2oc3ccc(Cl)cc3c2N1`, the cytotoxicity at 70.5 h was -14%.

With `CC1=C(C(N)=O)C(c2cn(C)nc2C)N2C(=O)CSC2=N1` (stereo not drawn), the cytotoxicity at 70.5 h was -9.38%.

As to `O=C(CCS(=O)(=O)c1ccccc1)NCCCn1cccn1`, the cytotoxicity at 70.5 h was -16.1%.

Turning to `CCn1cc(CN2CCN(C(=O)c3cc(C)c(C)s3)CC2)c(C)n1`, the cytotoxicity at 70.5 h was -10.4%.

Regarding `CCn1cc(CN2CCN(C(=O)c3cc(Br)cs3)CC2)c(C)n1`, the cytotoxicity at 70.5 h came out at 22.9%.

With `Cc1nn(C)cc1-c1cc(-c2cn(C)nc2C)n(CC(=O)NC2CC2)n1`, the cytotoxicity at 70.5 h was -7.88%.

With `O=C(c1cnn2c(-c3ccco3)ccnc12)N1CCCCCC1`, the cytotoxicity at 70.5 h is -8.53%.

For `CC1CCN(C(=O)c2cnn3c(-c4ccco4)ccnc23)CC1`, the cytotoxicity at 70.5 h is -8.7%.

For `Cc1nn(C)cc1-c1cc(C(F)(F)F)nc(NC2CCCCC2)n1`, the cytotoxicity at 70.5 h was -9.44%.

In the case of `Cc1nn(C)cc1-c1cc(C(F)(F)F)nc(NC2CCN(C)CC2)n1`, the cytotoxicity at 70.5 h is -4.19%.

For `Cc1nn(C)cc1S(=O)(=O)NCC(C)Cn1cc(Cl)cn1` (stereo not drawn), the cytotoxicity at 70.5 h stood at 3.54%.

With `Cc1noc(C)c1S(=O)(=O)N(C)Cc1nn(C)c(Cl)c1Cl`, the cytotoxicity at 70.5 h is 24.3%.

With `Cc1c(S(=O)(=O)N(CCc2ccccc2)Cc2ccn(C)n2)cnn1C`, the cytotoxicity at 70.5 h was -8.56%.

`Cc1nn(C)c(C)c1S(=O)(=O)N(C)Cc1nn(C)c(Cl)c1Cl`: the cytotoxicity at 70.5 h is 18.2%.

In the case of `O=C(Cn1cc(C(=O)O)cn1)Nc1c(Cl)cccc1Cl`, the cytotoxicity at 70.5 h is -5.99%.

Regarding `CCn1ccc(-c2cc(C(=O)O)n3ncc(Br)c3n2)n1`, the cytotoxicity at 70.5 h is -11.6%.

As to `CCn1ncc2c(C(F)(F)F)cc(-c3ccn(C)n3)nc21`, the cytotoxicity at 70.5 h was -8.47%.

As to `CCCn1ncc2c(C(=O)NC(C)Cn3cccn3)cc(C3CC3)nc21` (stereo not drawn), the cytotoxicity at 70.5 h was -13.1%.

On to `COC(=O)CNC(=O)c1cc(-c2ccccc2)nc2ncnn12`, for which the cytotoxicity at 70.5 h is -0.256%.

`CCOc1ccc2oc(-c3cn(C)nc3C)c(O)c(=O)c2c1`: the cytotoxicity at 70.5 h turned out to be 32.5%.

Turning to `COc1ccc2oc(-c3cn(C)nc3C)c(O)c(=O)c2c1`, the cytotoxicity at 70.5 h is -1.34%.

With `CC(=O)c1c(C)nn(S(=O)(=O)c2ccc(F)cc2)c1C`, the cytotoxicity at 70.5 h was 1.95%.

On to `c1cncc(CNc2ccccc2-c2nn[nH]n2)c1`, for which the cytotoxicity at 70.5 h was -5.95%.

Regarding `COc1ccc(-c2cc(C3(O)CCOC(C)(C)C3)on2)cc1` (stereo not drawn), the cytotoxicity at 70.5 h is -11.5%.

As to `O=C1N[C@H]2OCCC[C@H]2[C@H](c2ccccc2)N1`, the cytotoxicity at 70.5 h is -12.3%.

With `c1ccc2c3c([nH]c2c1)C(c1nn[nH]n1)CCC3` (stereo not drawn), the cytotoxicity at 70.5 h was -10.7%.

Turning to `Brc1ccc2[nH]c3c(c2c1)CCCC3c1nn[nH]n1` (stereo not drawn), the cytotoxicity at 70.5 h is -14.8%.

In the case of `COc1c(Br)c(CC2CC(CO)=NO2)c(OC)c2c1OCO2` (stereo not drawn), the cytotoxicity at 70.5 h is -9.88%.

`COc1cc(CC2CC(C(N)=O)=NO2)cc2c1OCO2` (stereo not drawn): the cytotoxicity at 70.5 h was -7.88%.

As to `Cc1cc(N)n(-c2ccc3nnc(C)n3n2)n1`, the cytotoxicity at 70.5 h is 6.51%.

With `COc1ccc(C2=NOC(CC#N)C2)cc1` (stereo not drawn), the cytotoxicity at 70.5 h was -1.51%.

As for `COc1ccc(C2=NOC(CO)C2)cc1` (stereo not drawn), the cytotoxicity at 70.5 h is -14.5%.

On to `CNc1[nH]nc(N)c1C(=O)Nc1ccccc1`, for which the cytotoxicity at 70.5 h stood at 2.68%.

As to `Cn1ncc2c1NC(=O)CC2c1ccc(F)cc1` (stereo not drawn), the cytotoxicity at 70.5 h was 1.96%.

As to `COc1ccccc1CNC(=O)c1[nH]ncc1Cl`, the cytotoxicity at 70.5 h was 6.24%.

In the case of `CC(=O)Oc1ccnc(C(F)(F)F)c1C(C)=O`, the cytotoxicity at 70.5 h was -3.5%.

On to `COc1cc(-c2n[nH]c(CC#N)n2)cc(OC)c1OC`, for which the cytotoxicity at 70.5 h was 51.6%.

For the compound `COC(=O)CCn1ccc(=O)c2ccc(OC)cc21`, the cytotoxicity at 70.5 h was determined as 19.7%.

As for `O=C(NCCCO)c1nnsc1-c1ccc(Cl)cc1`, the cytotoxicity at 70.5 h was -13.1%.

With `Cc1ncc2c(n1)CCCC2NC(=O)c1ccccc1C(=O)O` (stereo not drawn), the cytotoxicity at 70.5 h is -13.5%.

Turning to `Cc1ccc(CN2CC[C@H]3C[C@H](C(=O)N4CCCO4)O[C@@H]3C2)o1`, the cytotoxicity at 70.5 h was found to be 1.31%.

As to `Cn1ccnc1CN1CCC2(CC1)CN(c1ccccc1)C(=O)CO2`, the cytotoxicity at 70.5 h stood at 4.73%.

For `COCC1CN(C(=O)c2ccco2)Cc2cn(C)nc21` (stereo not drawn), the cytotoxicity at 70.5 h stood at 3.61%.

`CNC(=O)[C@H]1C[C@H]2OCC[C@H]2N(Cc2ccc(F)cc2)C1`: the cytotoxicity at 70.5 h was -4.52%.

Regarding `Cn1ccnc1CN1CCC2(CC1)CN(Cc1ccccc1)C(=O)CO2`, the cytotoxicity at 70.5 h was -5.92%.

Turning to `COCCN1C(=O)CCC12CCN(c1ncc(F)cn1)CC2`, the cytotoxicity at 70.5 h was -2.74%.

`CCCS(=O)(=O)N1C[C@@H](Oc2ccccn2)[C@H]2OCCC[C@H]21`: the cytotoxicity at 70.5 h is -1.57%.

On to `O=C(NC1COC2(CCN(Cc3cccs3)CC2)C1)c1ccccn1` (stereo not drawn), for which the cytotoxicity at 70.5 h is -2.35%.

Regarding `O=C1CCC2(CCN(c3ncc(F)cn3)CC2)N1Cc1ccncc1`, the cytotoxicity at 70.5 h stood at 7.51%.

`COCC1CN(C(=O)c2cccn2C)Cc2c1cnn2CC1CC1` (stereo not drawn): the cytotoxicity at 70.5 h was -1.46%.

Consider `COCC1CC2(CCN(C(=O)c3cncc(C)c3)CC2)CO1` (stereo not drawn), for which the cytotoxicity at 70.5 h turned out to be 9.94%.

On to `O=C(c1ccccn1)N1CCCC2(CCN(c3ccsc3)C2=O)C1` (stereo not drawn), for which the cytotoxicity at 70.5 h was 12.8%.

With `Cc1ccc(C(=O)N2CCC3(CCN(c4ccsc4)C3=O)C2)cn1` (stereo not drawn), the cytotoxicity at 70.5 h turned out to be 6.79%.

In the case of `CN(C)S(=O)(=O)N1CCC2(CC1)CC(Oc1ccccn1)CO2` (stereo not drawn), the cytotoxicity at 70.5 h amounted to 0.296%.

`COCC1CC2(CCN(C(=O)c3cnc4ccccc4c3)CC2)CO1` (stereo not drawn): the cytotoxicity at 70.5 h was -0.655%.

Consider `CN1CC(=O)N(c2cccc(F)c2)CC12CCN(Cc1ccsc1)C2` (stereo not drawn), for which the cytotoxicity at 70.5 h is -5.22%.

As to `O=C(c1ccncc1)N1CCCC2(CCN(c3cccnc3)C2=O)C1` (stereo not drawn), the cytotoxicity at 70.5 h stood at 0.0433%.
